Data from patent US8481716B2 (Wacker Chemie AG, priority 2004, dated 2013).

Columns and labels:
Format in all cases: physicochemical
[1] = Differential Scanning Calorimetry analysis for uncomplexed alpha-lipoic acid; settings: DSC
Method: Cyclodextrin complexes (3-6 mg sample size) were analyzed using Differential Scanning Calorimeter (DSC). […] This peak, if present, was compared to a peak at this temperature of pure alpha-lipoic acid to calculate percentage of uncomplexed alpha-lipoic acid in the complex. […] The peak around 60° C. decreases with increasing degree of complexation.

[2] = Temperature stability at 40° C.
[3] = Temperature stability at 25° C.; settings: for Content ALA: 25° C.
Method: Alpha lipic acid/cyclodextrin complexes were stored in a closed polypropylene container at 25° C.

[4] = Temperature stability at 100° C.
[5] = closed polypropylene container, 0 days of storage, initial content set to 100%

Non Complexed ALA ([1]; melting peak around 60° C. compared to pure ALA): 100%
Complexed ALA ([1]; complexed ALA in product): 0.0%
Content ALA ([2]; 8 days of storage): 99%
Content ALA ([2]; 39 days of storage): 48*) %
Content ALA ([2]; 81 days of storage): 41*) %
Content ALA [2, 5]: 100 ^ %
stability at room temperature ([3]; 25° C. storage): stable at room temperature
Content ALA ([3]; 39 days of storage): 100%
Content ALA ([3]; 67 days of storage): 100%
Content ALA ([3]; 107 days of storage): 100%
Content ALA [3, 5]: 100%
Content ALA ([4]; 3 days of storage): 38%
Content ALA ([4]; 11 days of storage): 13%
Content ALA ([4]; 28 days of storage): 4%
Content ALA ([4]; 36 days of storage): 0%
Content ALA ([4]; closed glass containers, 0 days of storage, initial content set to 100%): 100%
Compound: O=C(O)CCCCC1CCSS1 (stereo not drawn) [Pure ALA, Alpha-lipoic acid]
